Measured values from publication PMC6600523, “Interference with Amyloid-β Nucleation by Transient Ligand Interaction” (Molecules, 2019).
Where a SMILES comes first, the peptide text is derived from it. [ ]: non-standard residue; d: D form.

Assays:
Aβ42 [1] = biological target: T1, Aβ42 (Homo sapiens, UniProt P05067); test: Circular dichroism spectroscopy, secondary structure transition of Aβ42; format: biochemical; details: 20 mM sodium phosphate, 50 mM NaF pH 7.4, 20 °C
T1 construct: purchased Bachem H-1368.1000
T1 sequence (P05067 672-713 limits assumed): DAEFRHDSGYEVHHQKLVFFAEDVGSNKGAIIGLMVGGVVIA
Protocol: NaF was used to substitute NaCl in this measurement to maintain the ionic strength of the buffer, so as to avoid the strong absorbance of NaCl in the far-UV area. […] All samples were prepared on ice before being transferred to 1 mm path length quartz cuvettes. The final volume of each sample was 200 μL. Circular dichroism (CD) spectra were recorded from 260 nm to 190 nm using a J-815 spectropolarimeter (Jasco, Tokyo, Japan). All measurements were carried out with a step size of 0.5 nm and a bandwidth of 2 nm. The scanning speed was set to 100 nm/min and 10 scans were accumulated for each sample. […] Samples were maintained at 20 °C within the measurement duration of 120 h, and were prepared in triplicate. CD spectra for all samples were deconvoluted using the online server Dichroweb by applying the CDSSTR algorithm and reference dataset Set 7 [87].

Aβ42 [2] = biological target: T1, Aβ42; test: Absorbance-based AUC, size distribution of Aβ42 after 24 h; format: biochemical; details: 20 μM Aβ42 with 2 μM D3, 24 h, 20 mM sodium phosphate, 50 mM NaCl pH 7.4, 20 °C; absorbance AUC at 210 nm, 45,000 rpm; compared with Aβ42 alone
Protocol: In brief, 380 μL samples were loaded into 12-mm double-sector aluminum cellsm and were thermally equilibrated prior to the final centrifugation. The centrifugation was performed at 45,000 rpm, 20 °C for 15.5 h. Sedimentation profiles were recorded at 210 nm, with a radial resolution of 20 μm.
All sedimentation profiles were subjected to the software package SEDFIT (version 15.01b) for data evaluation. The data was analyzed with the continuous distribution c(s) Lamm equation model to obtain the sedimentation coefficient distributions. Fitting parameters (Table S1) including the buffer density and viscosity were determined using Sednterp (version 20130813BETA). […] Final graphs were generated using GUSSI (version 1.2.1) and sedimentation coefficients were standardized to s-values in pure water at 20 °C (s20,w).

Aβ42 [3] = biological target: T1, Aβ42; test: Atomic force microscopy, morphologies of Aβ42 samples; format: biochemical; details: 20 mM sodium phosphate, 50 mM NaCl pH 7.4, 20 °C, AFM in air, AC mode
Protocol: At 48 h and 120 h, 10 μL samples were pipetted onto freshly cleaved mica, and were further incubated at room temperature for 30 min. Mica with deposited samples were rinsed with ultrapure water for three times and finally dried with nitrogen gas. Atomic force microscopy (AFM) imaging was carried out in air at room temperature, using silicon cantilevers (OMCL AC160 TS, Olympus, Tokyo, Japan) and a JPK NanoWizard 3 microscope (JPK Instruments AG, Berlin, Germany) in AC mode. The nominal tip diameter of the cantilever was 7 nm. AFM height images at 10 × 10 μm^2 and 1 × 1 μm^2 (both with a resolution of 1024 × 1024 pixel) for all samples were taken with a line rate of 1 Hz and respective scanning speeds of 22.55 μm/s and 2.48 μm/s. Data was processed with JPK NanoWizard SPM data processing software.

Aβ42 [4] = biological target: T1, Aβ42; test: Turbidity assay of Aβ42 samples with D3; format: physicochemical; details: 40 μM Aβ42 with 4, 20, 40 and 80 μM D3; 20 mM sodium phosphate, 50 mM NaCl pH 7.4; ambient temperature; directly and after 2 h; UV-Vis
Protocol: The turbidity assay was carried out by measuring the spectra of all samples from 450 nm to 210 nm in a 1 cm quartz cuvette using a V-650 UV-Vis spectrophotometer (Jasco, Tokyo, Japan). The measurements were performed directly after preparing all samples, and repeated after 2 h of incubation at ambient temperature.

[5] = Sedimentation velocity AUC with fluorescence detection, labeled peptide alone; format: physicochemical; details: sedimentation velocity AUC-FDS of FITC-D3 alone, 0.2 μM, 20 mM sodium phosphate, 50 mM NaCl pH 7.4, 0.0004% PEI
Protocol: All measurements were performed using an XL-A analytical ultracentrifuge (Beckman coulter, Brea, CA, USA). […] All samples were prepared in 20 mM sodium phosphate, 50 mM NaCl (pH 7.4) containing 0.0004% PEI (w/v). Samples were then loaded into 3-mm double-sector titanium cells (Nanolytics, Potsdam, Germany), with each sector containing a 100 μL sample. The detection system uses an excitation laser at 488 nm and an emission cut-off filter at 505 nm to collect fluorescence signals. The amplification factor was adjusted to the same value for all samples for comparability. […] Data was acquired at 20 nm radial resolution. After thorough thermal equilibration the centrifugation was carried out at 60,000 rpm (289,000× g) at 20 °C for 15 h. Carrier proteins, such as albumin and kappa casein, are usually recommended to minimize unspecific surface adsorption for fluorescence-based AUC [56]. All sedimentation profiles were subjected to the software package SEDFIT (version 15.01b) for data evaluation. The data was analyzed with the continuous distribution c(s) Lamm equation model to obtain the sedimentation coefficient distributions. Fitting parameters (Table S1) including the buffer density and viscosity were determined using Sednterp (version 20130813BETA). […]

## CC(C)C[C@@H](NC(=O)[C@@H](CCCNC(=N)N)NC(=O)[C@H](NC(=O)[C@@H](CCCNC(=N)N)NC(=O)[C@H]1CCCN1C(=O)[C@H](N)CCCNC(=N)N)[C@H](C)O)C(=O)N[C@H](Cc1c[nH]cn1)C(=O)N[C@@H](C(=O)N[C@H](Cc1c[nH]cn1)C(=O)N[C@H](CCCNC(=N)N)C(=O)N[C@H](CC(N)=O)C(=O)N[C@H](CCCNC(=N)N)C(N)=O)[C@H](C)O [D3] (H-[dR][dP][dR][dT][dR][dL][dH][dT][dH][dR][dN][dR]-NH2)
Aβ42 [1]; 4 μM D3 added into 40 μM Aβ42 after 33 h preincubation
  Effect of delayed D3 addition on the structural transformation of Aβ42: visibly delayed the structural transformation of Aβ42
Aβ42 [1]; 40 μM Aβ42 with 4 μM D3, at 120 h, triplicate
  Ellipticity at 217 nm of the Aβ42 sample with D3 relative to Aβ42 alone: about 72%
Aβ42 [2]
  Size distribution of Aβ42 samples with D3 after 24 h: no such large aggregates
Aβ42 [3]; 40 μM Aβ42 with 4 μM D3 (0.1 equimolar), 48 h
  Morphology of Aβ42 incubated with D3, 48 h: no fibrils
Aβ42 [3]; 40 μM Aβ42 with 4 μM D3, 120 h
  Morphology of Aβ42 incubated with D3, 120 h: did not stop the fibril formation
Aβ42 [4]
  Turbidity (absorbance at 405 nm) of Aβ42 samples on addition of D3: promotes the rapid formation of co-precipitates in a concentration-dependent manner
[5]
  Self-assembly or aggregation of D3 in solution: does not form any self-assemblies or aggregates
other
  MST KD compared with SPR KD: 10 fold
